Key:
human CYP11B2 = target: T1, human CYP11B2 (Homo sapiens, UniProt P19099); test: IC50 vs CYP11B2 by aldosterone synthesis in V79 cells; type: cell-based; settings: V79 cells expressing human CYP11B2, 750 nM DOC, aldosterone HTRF; test concentrations 0.5-10000 nM
T1 construct: expressed in transfected cells
T1 sequence (P19099 25-503): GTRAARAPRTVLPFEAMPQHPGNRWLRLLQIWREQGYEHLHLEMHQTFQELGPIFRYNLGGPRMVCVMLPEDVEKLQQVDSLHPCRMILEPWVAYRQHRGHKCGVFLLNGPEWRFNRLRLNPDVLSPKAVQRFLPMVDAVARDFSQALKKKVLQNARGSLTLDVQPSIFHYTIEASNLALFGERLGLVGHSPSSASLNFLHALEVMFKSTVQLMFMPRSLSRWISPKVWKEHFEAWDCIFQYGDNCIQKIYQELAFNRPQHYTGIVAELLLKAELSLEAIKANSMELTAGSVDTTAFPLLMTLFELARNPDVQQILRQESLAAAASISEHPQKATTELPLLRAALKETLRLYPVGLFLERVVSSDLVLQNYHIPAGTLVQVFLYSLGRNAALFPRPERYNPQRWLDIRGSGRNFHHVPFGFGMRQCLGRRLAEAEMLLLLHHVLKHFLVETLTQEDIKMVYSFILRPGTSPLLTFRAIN
Method: Determination of IC50 vs CYP11B1/CYP11B2 by Measurement of Cortisol/Aldosterone Synthesis
This assay was performed in a standard 384-well plate design using cultured V79 cells stably expressing human CYP11B1 or human CYP11B2. Test compounds at 10 concentrations (for example, 10000, 3333.3, 1111.1, 370.4, 123.5, 41.2, 13.7, 4.6, 1.5 and 0.5 nM) were added in 384-well plate after the cell-seeding procedure. The incubation substrate contains 1500 nM RSS for CYP11B1 assay/750 nM DOC for CYP11B2 assay. The
Cortisol/Aldosterone production of cell culture supernatant was determined by Cortisol/Aldosterone HTRF kit after for about 15 hours incubation at RT (protect from light). IC50 values were calculated from the percent inhibition observed for each test compound at 10 concentrations.
The assay plate was read using Envision (Perkin Elmer, Waltham, Mass.) at 665 nm and 590 nm (using Filter Barcode of 217#, 205#; Mirror Barcode of 446#).
Data are analyzed using Assay Data Analyzer. All ratio data (665 nm/590 nm) are back calculated according to the standard curve, resulting in Cortisol/Aldosterone concentrations. IC50 values are reported as the Inflection Point (IP) of a four parameter fit of the titration data.
(§1) The following equation was used to calculate the % inhibition:
% Activity=100×{1−(Sample_back calculated Cortisol/Aldosterone concentration−LC_back calculated Cortisol/Aldosterone concentration)/(HC_back calculated Cortisol/Aldosterone concentration−LC_back calculated Cortisol/Aldosterone concentration)}

CYP1A2 = target: T2, CYP1A2 (Homo sapiens, UniProt P05177); test: Cocktail CYP assay, phenacetin O-deethylation; type: in vitro ADME; settings: human liver microsomes, 10 μM phenacetin; test concentrations up to 10 μM
T2 construct: 0.1 mg/mL protein human liver microsomes (BD Gentest); tissue BD Gentest; host or cells: human liver microsomes
T2 sequence (P05177 1-516): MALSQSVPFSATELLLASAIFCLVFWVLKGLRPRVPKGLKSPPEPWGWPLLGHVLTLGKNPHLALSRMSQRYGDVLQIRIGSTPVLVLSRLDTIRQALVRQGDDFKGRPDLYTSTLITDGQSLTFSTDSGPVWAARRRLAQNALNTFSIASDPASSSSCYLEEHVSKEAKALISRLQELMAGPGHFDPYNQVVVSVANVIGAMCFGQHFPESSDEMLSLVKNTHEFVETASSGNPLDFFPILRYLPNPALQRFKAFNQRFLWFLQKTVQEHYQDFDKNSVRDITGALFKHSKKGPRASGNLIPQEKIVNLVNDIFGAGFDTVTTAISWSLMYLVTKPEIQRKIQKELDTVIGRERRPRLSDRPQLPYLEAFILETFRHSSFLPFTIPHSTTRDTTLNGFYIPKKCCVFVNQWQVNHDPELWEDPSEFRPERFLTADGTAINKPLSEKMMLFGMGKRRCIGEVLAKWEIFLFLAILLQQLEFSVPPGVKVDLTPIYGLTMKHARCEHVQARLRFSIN
Method: Determination of IC50 in a Cocktail Assay for CYPs 1A2, 2C9, 2C19, 2D6 and 3A4
This assay was performed in a standard 96-well plate design. IC50 values were calculated from the percent inhibition observed for each test compound at 6 concentrations (for example, 0.0032, 0.016, 0.08, 0.4, 2 and 10 μM). The incubation substrate mix contains 10 μM phenacetin (1A2), 5 μM diclofenac (2C9), 30 μM mephenyloin (2C19), 5 μM dextromethorphan (2D6) and 2 μM midazolam (3A4), 0.1 mg/mL protein human liver microsomes (BD Gentest), 1 mM NAPDH, 3.3 mM MgCl2 and 100 mM potassium phosphate buffer (pH 7.4). The production of the metabolite of each probe substrate was determined after incubation for 10 min at 37° C. Quantitation of the metabolite peak area ratio against an internal standard (tolbutamide) was determined by LC/MS/MS analysis following acetonitrile treatment of the incubations.
Samples were analyzed in the MRM mode with a SCIEX API-4000 mass spectrometer (Applied Biosystems, Foster City, Calif.), with a Shimadzu LC-20 AD pump (Shimadzu corporation, Kyoto, JP) and a CTC PAL autosampler (Agilent Technologies, Switzerland). A Phenomenex, Luna, […], 100 A, 2.00×30 mm HPLC column was used for the separation. The mobile phases were: (A) 0.1% formic acid in water and (B) 0.1% formic acid in acetonitrile. The binary gradient was as follows.
The peak area ratio of the analyte to the internal standard was used to quantify the metabolite. The values of peak area ratios in the presence of test compound were compared to those of maximum or minimum controls and were expressed as % inhibition by interpolating between the maximum and minimum peak area ratios. Incubations with no inhibitor were defined as the maxima.
as §1
[1−[(X−Low control)/(High control−Low control)]]*100
For the IC50 calculation, SigmaPlot was used to plot the mean % inhibition versus the test compound concentrations and for non-linear regression analysis of the data. Depending on the range of data points defining the inhibition curve, the data may have been fit to the 4-parameter logistic equation.

| SMILES | IC50 (human CYP11B2) [µM] | IC50 (CYP1A2) [µM] |
| --- | --- | --- |
| CC1CN2C[C@H](O)C[C@H]2CN1c1ncc(S(=O)(=O)N2CCN(Cc3cncn3[C@H](C)c3ccc(F)cc3)CC2)s1 (single isomer, unassigned) [Compound 22] | 1.35 | 8.66 |
| C[C@H](c1ccc(F)cc1)n1cncc1CN1CCN(S(=O)(=O)c2cnc(N3CCNCC3)s2)CC1 [Compound 1] | 1.72 | > 10 |
| C[C@H](c1ccc(F)cc1)n1cncc1CN1CCN(S(=O)(=O)c2cnc(N3CCN(C)CC3)s2)CC1 [Compound 2] | 0.077 | > 10 |
| C[C@H](c1ccc(F)cc1)n1cncc1CN1CCN(S(=O)(=O)c2cnc(N3CCC4(CC3)CNC(=O)N4)s2)CC1 [Compound 3] | > 10 | > 10 |
| C[C@H](c1ccc(C#N)cc1)n1cncc1CN1CCN(S(=O)(=O)c2cnc(Nc3ccc(C(F)(F)F)cn3)s2)CC1 [Compound 4] | 0.445 | > 10 |
| C[C@H](c1ccc(F)cc1)n1cncc1CN1CCN(S(=O)(=O)c2cnc(N3CCN4C[C@H](O)C[C@H]4C3)s2)CC1 [Compound 5] | 4.77 | > 10 |
| C[C@H](c1ccc(F)cc1)n1cncc1CN1CCN(S(=O)(=O)c2cnc(N3CCN4C[C@H](O)C[C@@H]4C3)s2)CC1 [Compound 6] | 3.88 | > 10 |
| C[C@H](c1ccc(F)cc1)n1cncc1CN1CCN(S(=O)(=O)c2cnc(N3CCC(S(C)(=O)=O)C3)s2)CC1 (stereo partly drawn) [Compound 8] | 4 | > 10 |
| C[C@H](c1ccc(F)cc1)n1cncc1CN1CCN(S(=O)(=O)c2cnc(N3CCN(C4CCN(C)CC4)CC3)s2)CC1 [Compound 9] | 3.92 | > 10 |
| C[C@H](c1ccc(F)cc1)n1cncc1CN1CCN(S(=O)(=O)c2cnc(N3CCN4C[C@@H](CN)C[C@H]4C3)s2)CC1 [Compound 10] | > 10 | > 10 |
| C[C@H](c1ccc(F)cc1)n1cncc1CN1CCN(S(=O)(=O)c2cnc(N3CC[C@@H](N)[C@H](F)C3)s2)CC1 [Compound 11] | 3.39 | > 10 |
| C[C@H](c1ccc(F)cc1)n1cncc1CN1CCN(S(=O)(=O)c2cnc(N3CC[C@@H]4NCCO[C@H]4C3)s2)CC1 [Compound 15] | 3.62 | > 10 |
| C[C@H](c1ccc(F)cc1)n1cncc1CN1CCN(S(=O)(=O)c2cnc(N3CC(=O)N4C[C@H](O)C[C@H]4C3)s2)CC1 [Compound 16] | 4.6 | 1.49 |
| C[C@H](c1ccc(F)cc1)n1cncc1CN1CCN(S(=O)(=O)c2cnc(NCC(F)CN)s2)CC1 (stereo partly drawn) [Compound 17] | 9.35 | 2.19 |
| C[C@H](c1ccc(F)cc1)n1cncc1CN1CCN(S(=O)(=O)c2cnc(N3CCN4C[C@H](O)C[C@H]4C3=O)s2)CC1 [Compound 18] | 4.58 | > 10 |
| C[C@H](c1ccc(F)cc1)n1cncc1CN1CCN(S(=O)(=O)c2cnc(N3CCN4C[C@H](O)CC[C@H]4C3)s2)CC1 [Compound 19] | 1.93 | > 10 |
| C[C@H](c1ccc(F)cc1)n1cncc1CN1CCN(S(=O)(=O)c2cnc(N3CC[C@@H](N4CCOCC4)[C@H](F)C3)s2)CC1 [Compound 20] | 2.24 | 2.77 |
| C[C@H](c1ccc(F)cc1)n1cncc1CN1CCN(S(=O)(=O)c2cnc(N3C[C@@H]4C[C@@H](O)CN4C[C@@H]3C)s2)CC1 [Compound 21] | > 10 | > 10 |

The next lines start with the values.

| IC50 (human CYP11B2) [µM] | IC50 (CYP1A2) [µM] | SMILES |
| --- | --- | --- |
| 4.57 | > 10 | CC1CN(c2ncc(S(=O)(=O)N3CCN(Cc4cncn4[C@H](C)c4ccc(F)cc4)CC3)s2)C[C@@H]2C[C@@H](O)CN12 (stereo partly drawn) [Compound 23] |
| > 10 | > 10 | C[C@H](c1ccc(F)cc1)n1cncc1CN1CCN(S(=O)(=O)c2cnc(N3CCN4C[C@H](O)CC4(C)C3)s2)CC1 (stereo partly drawn) [Compound 24] |
| > 10 | > 10 | C[C@H](c1ccc(F)cc1)n1cncc1CN1CCN(S(=O)(=O)c2cnc(N3CCC(N)(CO)CC3)s2)CC1 [Compound 25] |
| 9.22 | > 10 | C[C@H](c1ccc(F)cc1)n1cncc1CN1CCN(S(=O)(=O)c2cnc(N3CCN4C(=O)OC[C@H]4C3)s2)CC1 [Compound 26] |
| 2.27 | > 10 | C[C@H](c1ccc(F)cc1)n1cncc1CN1CCN(S(=O)(=O)c2cnc(N3CCN4CCC(O)[C@H]4C3)s2)CC1 (stereo partly drawn) [Compound 27] |
| 4.64 | > 10 | C[C@H](c1ccc(F)cc1)n1cncc1CN1CCN(S(=O)(=O)c2ccc(N3CCNCC3)cn2)CC1 [Compound 28] |
| 4.37 | > 10 | C[C@H](c1ccc(F)cc1)n1cncc1CN1CCN(S(=O)(=O)c2cncc(N3CCNCC3)c2)CC1 [Compound 29] |
| 2.9 | > 10 | C[C@H](c1ccc(F)cc1)n1cncc1CN1CCN(S(=O)(=O)c2cnc(N3CCNCC3)cn2)CC1 [Compound 30] |
| > 10 | > 10 | Cc1ccc(C2(n3cncc3CN3CCN(S(=O)(=O)c4cnc(N5CCN(C)CC5)s4)CC3)CC2)nc1 [Compound 31] |
| 1.03 | > 10 | CN1CCN(c2ncc(S(=O)(=O)N3CCN(Cc4cncn4CCOc4ccc(Cl)cc4)CC3)s2)CC1 [Compound 32] |
| 1.61 | > 10 | CN1CCN(c2ncc(S(=O)(=O)N3CCN(Cc4cncn4CCOc4ccc(F)cn4)CC3)s2)CC1 [Compound 33] |
| 0.193 | 5.81 | CC(c1cncn1[C@H](C)c1ccc(F)cc1)N1CCN(S(=O)(=O)c2cnc(N3CCN4C[C@H](O)C[C@H]4C3)s2)CC1 (stereo partly drawn) [Compound 37] |
| 2.47 | 3.73 | C[C@H](c1ccc(F)cc1)n1cncc1C1C(=O)OCC2CN(S(=O)(=O)c3cnc(Nc4ccc(C(F)(F)F)cn4)s3)CCN21 (stereo partly drawn) [Compound 39] |
| 3.9 | > 10 | C[C@H](c1ccc(F)cc1)n1cncc1C1COCC2CN(S(=O)(=O)c3cnc(Nc4ccccn4)s3)CCN21 (stereo partly drawn) [Compound 40] |
| > 10 | > 10 | C[C@H](c1ccc(F)cc1)n1cnnc1CN1CCN(S(=O)(=O)c2cnc(N3CCN4C[C@H](O)C[C@H]4C3)s2)CC1 [Compound 42] |
